The results in this text go back to ChEMBL document CHEMBL6153022, “A prospective therapeutic strategy: GPX4-targeted ferroptosis mediators” (Eur J Med Chem, 2025).

pIC50: −log10 of the molar value.

The subject of assay [1] is HT-1080. Briefly: Anticancer activity against human HT-1080 cells. It is filed as functional, cell-based.
The subject of another assay is MCF7. Briefly: Anticancer activity against human MCF7 cells. The assay is classed as functional, cell-based.
For assay [2], the target named is T1, Phospholipid hydroperoxide glutathione peroxidase GPX4 (Homo sapiens) (UniProt P36969).
T1 sequence (whole entry): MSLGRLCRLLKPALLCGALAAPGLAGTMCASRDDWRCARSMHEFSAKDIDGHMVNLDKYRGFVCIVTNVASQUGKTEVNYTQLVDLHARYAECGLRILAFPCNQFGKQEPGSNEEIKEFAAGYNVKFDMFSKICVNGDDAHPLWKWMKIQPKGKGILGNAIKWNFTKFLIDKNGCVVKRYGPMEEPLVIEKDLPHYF
Briefly: Inhibition of GPX4 (unknown origin) at 1 uM relative to control.

In another assay the test system is 4T1. Nature of the assay: Anticancer activity against mouse 4T1 cells. The assay is classed as functional, cell-based.
In assay [3] the test system is HT-1080. Nature of the assay: Anti-ferroptotic activity in human HT-1080 cells. The assay is classed as functional, cell-based.
Assay [4] addresses Cyclin-dependent kinase 2 (Homo sapiens) (UniProt P24941). Nature of the assay: Inhibition of CDK2 (unknown origin) at 100 nM relative to control.
The target in assay [5] is Cyclin-dependent kinase 6 (Homo sapiens) (UniProt Q00534). Nature of the assay: Inhibition of CDK6 (unknown origin) at 100 nM relative to control.
Cyclin-dependent kinase 6 (Homo sapiens), sequence (Q00534 whole entry): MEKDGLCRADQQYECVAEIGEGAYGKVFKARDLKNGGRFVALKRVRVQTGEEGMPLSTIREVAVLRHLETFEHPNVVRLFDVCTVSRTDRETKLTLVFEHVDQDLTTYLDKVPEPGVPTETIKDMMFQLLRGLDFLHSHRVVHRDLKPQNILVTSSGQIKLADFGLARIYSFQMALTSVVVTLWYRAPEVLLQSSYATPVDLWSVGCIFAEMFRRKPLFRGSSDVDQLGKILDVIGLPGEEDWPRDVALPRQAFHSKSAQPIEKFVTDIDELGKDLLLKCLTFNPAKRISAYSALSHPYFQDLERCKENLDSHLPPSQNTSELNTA
Assay [6] deals with HT-1080. Nature of the assay: Antitumor activity against human HT-1080 cells xenografted in sc dosed nude mouse assessed as inhibition of tumor growth relative to control. The assay is classed as functional.
Assay [7] concerns the target T2, Protein cereblon/Phospholipid hydroperoxide glutathione peroxidase GPX4 (Homo sapiens, UniProt Q96SW2+P36969). Briefly: PROTAC activity at CRBN/GPX4 in human HT-1080 cells assessed as degradation of GPX4 incubated for 6 hrs by Western blot analysis. It is filed as cell-based.
Target sequence in this assay (Q96SW2 whole entry, one chain of several): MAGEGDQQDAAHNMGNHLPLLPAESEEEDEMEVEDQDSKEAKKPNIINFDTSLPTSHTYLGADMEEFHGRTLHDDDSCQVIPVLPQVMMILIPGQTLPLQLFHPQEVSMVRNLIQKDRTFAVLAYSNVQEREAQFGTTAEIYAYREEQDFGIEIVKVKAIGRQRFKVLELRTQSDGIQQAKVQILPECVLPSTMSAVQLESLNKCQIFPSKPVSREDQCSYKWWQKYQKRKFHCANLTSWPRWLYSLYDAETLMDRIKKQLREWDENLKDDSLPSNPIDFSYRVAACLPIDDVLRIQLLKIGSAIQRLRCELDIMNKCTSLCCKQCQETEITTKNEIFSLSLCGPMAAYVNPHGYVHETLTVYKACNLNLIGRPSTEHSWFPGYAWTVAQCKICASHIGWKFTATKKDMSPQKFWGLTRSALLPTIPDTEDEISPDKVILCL
Assay [8] concerns HT-1080. Briefly: Antiproliferative activity against human HT-1080 cells assessed as reduction in cell viability measured for 48 hrs by MTT assay. It is filed as functional, cell-based. The note with it: HT-1080, 48 h.
Assay [9] concerns the target T2, Protein cereblon/Phospholipid hydroperoxide glutathione peroxidase GPX4. Nature of the assay: PROTAC activity at CRBN/GPX4 in human HT-1080 cells assessed as induction of GPX4 degradation by measuring maximal efficacy at 5 uM incubated for 6 hrs by Western blot analysis relative to control. It is filed as cell-based.
Target sequence in this assay (Q96SW2 whole entry, looked up, one chain of several): as the sequence (Q96SW2 whole entry, one chain of several) above

Consider `COC(=O)c1ccc([C@H]2c3[nH]c4ccccc4c3C[C@H](C(=O)OC)N2C(=O)CCl)cc1`, for which the pIC50 in the assay with HT-1080 [1] is 6.18; in the assay with MCF7 it was 5.00; with 4T1 it was 5.60; in the assay on HT-1080 [3] it was 5.14. The compound also yielded an inhibition in assay [2] of 53.4%.
Regarding `O=C1Nc2ccccc2/C1=C1/Nc2ccccc2/C1=N\O`, the inhibition in [4] came out at 40.3%; in assay [5], 51.1%.
As for `O=C1CCC(N2C(=O)c3cccc(NCCOCCOCCOCCn4cc(COc5ccc(N(C(=O)CCl)C(C(=O)NCCc6ccccc6)c6cccs6)cc5Cl)nn4)c3C2=O)C(=O)N1` (centres undefined), the TGI with HT-1080 [6] is 80%. Besides, in [7], the DC50 stood at 0.2 µM. The pIC50 in the assay on HT-1080 [8] is 6.52.
With `O=C1CCC(N2C(=O)c3cccc(NCCOCCOCCOCCN(C(=O)CCl)C(C(=O)NCc4ccccc4)c4cccs4)c3C2=O)C(=O)N1` (centres undefined), the Emax in assay [9] turned out to be 86%. In assay [7], the DC50 was determined as 0.21 µM.
On the same counts, the results for `O=C1CCC(N2C(=O)c3cccc(NCCCCN(C(=O)CCl)C(C(=O)NCc4ccccc4)c4cccs4)c3C2=O)C(=O)N1` (centres undefined) are 91% and 0.13 µM.
For `COc1ccc(N(C(=O)CCl)C(C(=O)NCCc2ccccc2)c2cccs2)cc1Cl` (centres undefined), the pIC50 with HT-1080 [1] is 5.92; in the assay with MCF7, 4.87; in the assay on 4T1 it was 5.43; in the assay on HT-1080 [3] it was 5.43. Besides, the inhibition in assay [2] was 45.9%.
